≈ marks a conversion by molar mass, not a printed value.
Experiments:
[1] = oral toxicity in mice; conditions: mouse, in vivo, oral administration, read-out: oral dosage tolerated without exhibiting toxic symptoms
Description: The new cephalosporin derivative of this invention may be administered orally at a unit dose of 100 mg to 250 mg to an adult human patient four times a day, for a guideline. However, precise dosage of the new cephalosporin is determinable through preliminary routine experiments, depending on the body weight, ages, sex and other various parameters of patients as well as the nature of the bacterial infections to be treated, and so on.

[2] = test system: Escherichia coli 255; experiment: antibacterial activity, MIC by standard serial dilution method; format: cell-based
From the text: (§1) Antibacterial activity of Compounds Nos. 1, 3, 5, 7, 9, 11, 13, 15, 17, 19, 21, 23, 25, 27, 29, 31, 33, 35 and 37 indentified hereinbefore which are the particular examples of the new cephalosporin derivative of general formula (I) according to this invention and which are in the form of the free carboxylic acid was estimated by determining the minimum inhibitory concentrations (MIC., μg/ml) of these compounds against a variety of bacteria according to a standard serial dilution method.

[3] = test system: Pseudomonas aeruginosa GN10362; experiment: as above; format: cell-based
From the text: as §1

[4] = test system: Klebsiella pneumoniae GN69; experiment: as above; format: cell-based
From the text: as §1

[5] = test system: Escherichia coli NIHJ JC-2; experiment: as above; format: cell-based; conditions: NIHJJC2
From the text: as §1

[6] = test system: Proteus vulgaris GN76; experiment: as above; format: cell-based
From the text: as §1

[7] = test system: Staphylococcus epidermidis ATCC14990; experiment: as above; format: cell-based
From the text: as §1

[8] = test system: Serratia marcescens GN10857; experiment: as above; format: cell-based
From the text: as §1

[9] = test system: Enterobacter cloacae GN7471; experiment: as above; format: cell-based
From the text: as §1

[10] = test system: Proteus vulgaris GN76/C-1; experiment: as above; format: cell-based
From the text: as §1

[11] = test system: Enterobacter hirae ATCC8043; experiment: as above; format: cell-based
From the text: as §1

[12] = test system: Serratia marcescens No. 1; experiment: as above; format: cell-based
From the text: as §1

[13] = test system: Citrobacter freundii GN346; experiment: as above; format: cell-based
From the text: as §1

[14] = test system: Enterobacter cloacae G-0008; experiment: as above; format: cell-based; conditions: G0008
From the text: as §1

[15] = test system: Citrobacter freundii GN346/16; experiment: as above; format: cell-based
From the text: as §1

[16] = test system: Escherichia coli W3630 RGN823; experiment: as above; format: cell-based; conditions: W3630RGN823
From the text: as §1

[17] = test system: Escherichia coli 255/S-1; experiment: as above; format: cell-based; conditions: 255/S1
From the text: as §1

[18] = test system: Staphylococcus aureus 209P JC-1; experiment: as above; format: cell-based
From the text: as §1

[19] = test system: Marganella morganii 1510; experiment: as above; format: cell-based
From the text: as §1

[20] = test system: Entrobacter faecalis W-73; experiment: as above; format: cell-based
From the text: as §1

[21] = test system: Marganella morganii 1510/S-1; experiment: as above; format: cell-based
From the text: as §1

[22] = test system: Klebsiella pneumoniae PCI602; experiment: as above; format: cell-based
From the text: as §1

[23] = test system: Escherichia coli GN206; experiment: as above; format: cell-based
From the text: as §1

SMILES | MIC [2] [µg/mL] | MIC [3] [µg/mL] | MIC [4] [µg/mL] | MIC [5] [µg/mL] | MIC [6] [µg/mL] | MIC [7] [µg/mL] | MIC [8] [µg/mL] | MIC [9] [µg/mL] | MIC [10] [µg/mL] | MIC [11] [µg/mL] | MIC [12] [µg/mL] | MIC [13] [µg/mL] | MIC [14] [µg/mL] | MIC [15] [µg/mL] | MIC [16] [µg/mL] | MIC [17] [µg/mL] | MIC [18] [µg/mL] | MIC [19] [µg/mL] | MIC [20] [µg/mL] | MIC [21] [µg/mL] | other results
CO/N=C(\C(=O)NC1C(=O)N2C(C(=O)OCOC(=O)C(C)(C)C)=C(SCC3CCOC3)CS[C@H]12)c1csc(N)n1 (stereo partly drawn) [Compound No. 28, pivaloyloxymethyl 7-[(Z)-2-(2-aminothiazol-4-yl)-2-methoxyiminoacetamido]-3-(tetrahydrofuran-3-yl) methylthio-3-cephem-4-carboxylate] |  |  |  |  |  |  |  |  |  |  |  |  |  |  |  |  |  |  |  |  | NOAEL [1]: 3000 mg/kg
CO/N=C(\C(=O)NC1C(=O)N2C(C(=O)O)=C(SCC3COCO3)CS[C@H]12)c1csc(N)n1 (stereo partly drawn) [Compound No. 29, 7 - [(Z)-2-(2-aminothiazol-4-yl)-2-methoxyiminoacetamido]-3-(1,3-dioxolan-4-yl)methylthio-3-cephem-4-carboxylic acid] | 50 (≈ 99.7 µM) | > 100 | 0.2 (≈ 0.399 µM) | 0.39 (≈ 0.778 µM) | 0.1 (≈ 0.199 µM) | 0.78 (≈ 1.56 µM) | 50 (≈ 99.7 µM) | 50 (≈ 99.7 µM) | 6.25 (≈ 12.5 µM) | > 100 | 3.13 (≈ 6.24 µM) | > 100 | 0.39 (≈ 0.778 µM) | 3.13 (≈ 6.24 µM) | 0.78 (≈ 1.56 µM) | 0.39 (≈ 0.778 µM) | 1.56 (≈ 3.11 µM) | 50 (≈ 99.7 µM) | > 100 | 0.39 (≈ 0.778 µM) | MIC [22]: 0.2 µg/mL (≈ 0.399 µM); MIC [23]: 6.25 µg/mL (≈ 12.5 µM)
CO/N=C(\C(=O)NC1C(=O)N2C(C(=O)O)=C(SCC3CCOCC3)CS[C@H]12)c1csc(N)n1 (stereo partly drawn) [Compound No. 31, 7-[(Z)-2-(2-aminothiazol-4-yl)-2-methoxyiminoacetamido]-3-(tetrahydropyran-4-yl)methylthio-3-cephem-4-carboxylic acid] | 25 (≈ 48.7 µM) | 100 (≈ 195 µM) | 0.78 (≈ 1.52 µM) | 1.56 (≈ 3.04 µM) | 0.78 (≈ 1.52 µM) | 1.56 (≈ 3.04 µM) | 25 (≈ 48.7 µM) | 50 (≈ 97.3 µM) | 12.5 (≈ 24.3 µM) | > 100 | 3.13 (≈ 6.09 µM) | > 100 | 1.56 (≈ 3.04 µM) | 3.13 (≈ 6.09 µM) | 1.56 (≈ 3.04 µM) | 1.56 (≈ 3.04 µM) | 1.56 (≈ 3.04 µM) | 100 (≈ 195 µM) | > 100 | 0.78 (≈ 1.52 µM) | MIC [22]: 1.56 µg/mL (≈ 3.04 µM); MIC [23]: 6.25 µg/mL (≈ 12.2 µM)
CO/N=C(\C(=O)NC1C(=O)N2C(C(=O)O)=C(SCC3COCOC3)CS[C@H]12)c1csc(N)n1 (stereo partly drawn) [Compound No. 33, 7-[(Z)-2-(2-aminothiazol-4-yl)-2-methoxyiminoacetamido]-3-(1,3-dioxan-5-yl)methylthio-3-cephem-4-carboxylic acid] | 50 (≈ 97 µM) | > 100 | 0.1 (≈ 0.194 µM) | 0.78 (≈ 1.51 µM) | 0.2 (≈ 0.388 µM) | 0.78 (≈ 1.51 µM) | 50 (≈ 97 µM) | 50 (≈ 97 µM) | 6.25 (≈ 12.1 µM) | > 100 | 0.78 (≈ 1.51 µM) | > 100 | 0.78 (≈ 1.51 µM) | 3.13 (≈ 6.07 µM) | 0.78 (≈ 1.51 µM) | 0.78 (≈ 1.51 µM) | 0.78 (≈ 1.51 µM) | 100 (≈ 194 µM) | > 100 | 0.39 (≈ 0.756 µM) | MIC [22]: 0.39 µg/mL (≈ 0.756 µM); MIC [23]: 6.25 µg/mL (≈ 12.1 µM)
Nc1nc(/C(=N/O)C(=O)NC2C(=O)N3C(C(=O)O)=C(SCC4COCO4)CSC23)cs1 (stereo not drawn) [Compound No. 35] | 50 (≈ 103 µM) | > 100 | 0.05 (≈ 0.103 µM) | 0.39 (≈ 0.8 µM) | 12.5 (≈ 25.6 µM) | 0.2 (≈ 0.41 µM) | > 100 | 50 (≈ 103 µM) | 100 (≈ 205 µM) | 12.5 (≈ 25.6 µM) | 12.5 (≈ 25.6 µM) | > 100 | 1.56 (≈ 3.2 µM) | 3.13 (≈ 6.42 µM) | 1.56 (≈ 3.2 µM) | 0.39 (≈ 0.8 µM) | 0.39 (≈ 0.8 µM) | 50 (≈ 103 µM) | 12.5 (≈ 25.6 µM) | 0.2 (≈ 0.41 µM) | MIC [22]: 0.39 µg/mL (≈ 0.8 µM); MIC [23]: 12.5 µg/mL (≈ 25.6 µM)
Nc1nc(/C(=N/O)C(=O)NC2C(=O)N3C(C(=O)O)=C(SCC4CCOCC4)CS[C@H]23)cs1 (stereo partly drawn) [Compound No. 37, 7-[(Z)-2-(2-aminothiazol-4-yl)-2-hydroxyiminoacetamido]-3-(tetrahydropyran-4-yl)methylthio-3-cephem-4-carboxylic acid] | 50 (≈ 100 µM) | > 100 | 0.1 (≈ 0.2 µM) | 3.13 (≈ 6.27 µM) | 3.13 (≈ 6.27 µM) | 0.39 (≈ 0.781 µM) | > 100 | 100 (≈ 200 µM) | 50 (≈ 100 µM) | 50 (≈ 100 µM) | 12.5 (≈ 25 µM) | > 100 | 3.13 (≈ 6.27 µM) | 6.25 (≈ 12.5 µM) | 6.25 (≈ 12.5 µM) | 3.13 (≈ 6.27 µM) | 0.39 (≈ 0.781 µM) | 100 (≈ 200 µM) | 25 (≈ 50 µM) | 0.78 (≈ 1.56 µM) | MIC [22]: 3.13 µg/mL (≈ 6.27 µM); MIC [23]: 12.5 µg/mL (≈ 25 µM)
